According to PubChem BioAssay AID248 (DTP/NCI, 2004):
“And” between values parts separate entries of the source, which are not always exact repeats. Equal values may be shown once. Toxic doses and inconclusive results are not listed. Cut-off read from the data, not from the text of the source: active = T/C of 150% or more; inactive = T/C below 125%.

Tested on: L1210 leukemia ip in BDF1 mice, survival T/C
Assay: NCI In Vivo Anticancer Drug Screen. Data for tumor model L1210 Leukemia (intraperitoneal) in B6D2F1 (BDF1) mice
Conditions: endpoint: mean survival time, higher = longer survival
Procedure, shortened: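 Tumor was transplanted into mice, which were then dosed with test compound or vehicle alone. Survival was recorded for each group, and the treated figure was expressed relative to the control figure.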

[1] = dose: 100.0 mg/kg/injection, schedule: Q04DX003 (ip), vehicle: saline with Tween-80
[2] = dose: 200.0 mg/kg/injection, schedule: Q04DX003 (ip), vehicle: saline with Tween-80
[3] = dose: 100.0 mg/kg/injection, schedule: Q04DX003 (ip), vehicle: Klucel (hydroxypropylcellulose) (HPC)
[4] = dose: 200.0 mg/kg/injection, schedule: Q04DX003 (ip), vehicle: Klucel (hydroxypropylcellulose) (HPC)
[5] = dose: 400.0 mg/kg/injection, schedule: Q04DX003 (ip), vehicle: Klucel (hydroxypropylcellulose) (HPC)
[6] = dose: 100.0 mg/kg/injection, schedule: Q01DX001 (ip), vehicle: Klucel (hydroxypropylcellulose) (HPC)
[7] = dose: 200.0 mg/kg/injection, schedule: Q01DX001 (ip), vehicle: Klucel (hydroxypropylcellulose) (HPC)
[8] = dose: 400.0 mg/kg/injection, schedule: Q01DX001 (ip), vehicle: Klucel (hydroxypropylcellulose) (HPC)
[9] = dose: 50.0 mg/kg/injection, schedule: Q04DX003 (ip), vehicle: saline
[10] = dose: 100.0 mg/kg/injection, schedule: Q01DX009 (ip), vehicle: saline
[11] = dose: 100.0 mg/kg/injection, schedule: Q04DX003 (ip), vehicle: saline
[12] = dose: 200.0 mg/kg/injection, schedule: Q01DX009 (ip), vehicle: saline
[13] = dose: 200.0 mg/kg/injection, schedule: Q04DX003 (ip), vehicle: saline
[14] = dose: 100.0 mg/kg/injection, schedule: Q01DX009 (ip), vehicle: Klucel (hydroxypropylcellulose) (HPC)
[15] = dose: 200.0 mg/kg/injection, schedule: Q01DX009 (ip), vehicle: Klucel (hydroxypropylcellulose) (HPC)
[16] = dose: 400.0 mg/kg/injection, schedule: Q01DX009 (ip), vehicle: Klucel (hydroxypropylcellulose) (HPC)
[17] = dose: 12.5 mg/kg/injection, schedule: Q04DX003 (ip), vehicle: saline
[18] = dose: 25.0 mg/kg/injection, schedule: Q04DX003 (ip), vehicle: saline
[19] = dose: 400.0 mg/kg/injection, schedule: Q04DX003 (ip), vehicle: saline
[20] = dose: 100.0 mg/kg/injection, schedule: Q04DX003 (sc), vehicle: olive oil, sesame oil, peanut oil
[21] = dose: 200.0 mg/kg/injection, schedule: Q04DX003 (sc), vehicle: olive oil, sesame oil, peanut oil
[22] = dose: 400.0 mg/kg/injection, schedule: Q04DX003 (sc), vehicle: olive oil, sesame oil, peanut oil
[23] = dose: 100.0 mg/kg/injection, schedule: Q01DX001 (ip), vehicle: saline
[24] = dose: 200.0 mg/kg/injection, schedule: Q01DX001 (ip), vehicle: saline
[25] = dose: 400.0 mg/kg/injection, schedule: Q01DX001 (ip), vehicle: saline

Measured: T/C

Cn1c(=O)c2[nH]cnc2n(C)c1=O (tested in a mixture with another compound)
inactive: [1] 97 % of control | [2] 96 % of control

COc1ccc(OC)c(C(=O)CCCCCCCCC(=O)O)c1
inactive: [3] 109 % of control | [4] 95 % of control | [5] 101 % of control

CC(=O)OC1CCC2(C)C(=CCC3C2CCC2(C)C(C(C)C(N)=O)CCC32)C1 (configuration not stated)
inactive: [6] 90 % of control and 91 % of control | [7] 94 % of control and 91 % of control | [8] 87 % of control and 100 % of control

COC1CC(OC2OC(CO)C(O)C(O)C2O)/C(=C\C#N)C(O)C1OC (configuration not stated)
inactive: dose: 50.0 mg/kg/injection, schedule: Q01DX009 (ip), vehicle: saline 106 % of control | [9] 103 % of control | [10] 103 % of control | [11] 100 % of control | [12] 101 % of control | [13] 101 % of control

CCOC(=O)NC(CC)c1ccc2oc3ccccc3c2c1 (configuration not stated)
inactive: [6] 98 % of control | [14] 90 % of control | [7] 103 % of control | [15] 94 % of control | [8] 108 % of control | [16] 95 % of control

FC(F)(F)c1ccc2c(c1)N(CCCN1CCN(CCCl)CC1)c1ccccc1S2
inactive: dose: 0.78 mg/kg/injection, schedule: Q01DX009 (ip), vehicle: saline 101 % of control | dose: 1.56 mg/kg/injection, schedule: Q01DX009 (ip), vehicle: saline 107 % of control | dose: 3.12 mg/kg/injection, schedule: Q01DX009 (ip), vehicle: saline 107 % of control | dose: 6.25 mg/kg/injection, schedule: Q04DX003 (ip), vehicle: saline 96 % of control | dose: 12.5 mg/kg/injection, schedule: Q01DX009 (ip), vehicle: saline 110 % of control | [17] 97 % of control | [18] 110 % of control | [9] 89 % of control

CC1CCN(S(=O)(=O)c2ccc(Cl)cc2)CC1
inactive: [14] 102 % of control | [15] 97 % of control | [16] 97 % of control

CCOC(=O)c1c(C)oc(=O)c(Br)c1C
inactive: [11] 97 % of control | [13] 100 % of control | [19] 94 % of control

CCOC(=O)c1cnc(SC)nc1Nc1ccc(Br)cc1
inactive: dose: 50.0 mg/kg/injection, schedule: Q01DX009 (ip), vehicle: Klucel (hydroxypropylcellulose) (HPC) 93 % of control | [14] 92 % of control | [3] 124 % of control | [15] 88 % of control | [4] 124 % of control | [5] 87 % of control

Cc1cc(C)c2ccc(N)nc2n1
inactive: dose: 9.5 mg/kg/injection, schedule: Q01DX001 (ip), vehicle: saline 86 % of control | dose: 19.0 mg/kg/injection, schedule: Q01DX001 (ip), vehicle: saline 91 % of control | dose: 38.0 mg/kg/injection, schedule: Q01DX001 (ip), vehicle: saline 101 % of control

O=c1[nH]cc(NCc2ccco2)c(=O)[nH]1
inactive: [3] 101 % of control | [4] 88 % of control | [5] 93 % of control

Cc1ccc(N)c(F)c1
inactive: dose: 100.0 mg/kg/injection, schedule: Q04DX002 (sc), vehicle: olive oil, sesame oil, peanut oil 93 % of control | dose: 200.0 mg/kg/injection, schedule: Q04DX002 (sc), vehicle: olive oil, sesame oil, peanut oil 98 % of control | dose: 400.0 mg/kg/injection, schedule: Q04DX002 (sc), vehicle: olive oil, sesame oil, peanut oil 104 % of control

Oc1ccccc1COCc1ccccc1O
inactive: dose: 100.0 mg/kg/injection, schedule: Q01DX001 (sc), vehicle: olive oil, sesame oil, peanut oil 104 % of control | [20] 102 % of control | dose: 200.0 mg/kg/injection, schedule: Q01DX001 (sc), vehicle: olive oil, sesame oil, peanut oil 98 % of control | [21] 108 % of control | dose: 400.0 mg/kg/injection, schedule: Q01DX001 (sc), vehicle: olive oil, sesame oil, peanut oil 100 % of control | [22] 108 % of control

O=C1CCCCC(=O)OCCC1
inactive: [23] 93 % of control | [24] 98 % of control | [25] 88 % of control

CCOC(=O)c1ccccc1NC(c1ccccc1)c1ccc2cccnc2c1O (configuration not stated)
inactive: [23] 101 % of control | [24] 97 % of control | [25] 91 % of control

CC(=O)Nc1ccc(OC(=O)Nc2ccccc2F)cc1
inactive: [14] 98 % of control | [15] 101 % of control | [16] 106 % of control

COC(=O)Nc1ccc(N)c(NC(=O)OC)n1
inactive: [14] 92 % of control | [3] 106 % of control | [15] 89 % of control | [4] 99 % of control | [16] 87 % of control | [5] 100 % of control

O=C1OC(=O)C2C(c3ccccc3)C=CC(c3ccccc3)C12 (configuration not stated)
inactive: dose: 50.0 mg/kg/injection, schedule: Q01DX009 (ip), vehicle: saline with Tween-80 98 % of control | dose: 100.0 mg/kg/injection, schedule: Q01DX009 (ip), vehicle: saline with Tween-80 108 % of control | [11] 92 % of control | dose: 200.0 mg/kg/injection, schedule: Q01DX009 (ip), vehicle: saline with Tween-80 98 % of control | [13] 108 % of control

CCOC(CCC#N)c1ccc(C)cc1 (configuration not stated)
inactive: [1] 113 % of control | dose: 118.0 mg/kg/injection, schedule: Q01DX009 (ip), vehicle: saline with Tween-80 108 % of control | [2] 98 % of control | dose: 235.0 mg/kg/injection, schedule: Q01DX009 (ip), vehicle: saline with Tween-80 97 % of control | dose: 400.0 mg/kg/injection, schedule: Q04DX003 (ip), vehicle: saline with Tween-80 95 % of control

OC(C=C(C(F)(F)F)C(F)(F)F)c1cccc(Cl)c1 (configuration not stated)
inactive: [20] 97 % of control | [21] 95 % of control | [22] 91 % of control

CC1(C)NC(=O)N(CCCl)C1=O
inactive: [9] 97 % of control | [10] 96 % of control | [11] 92 % of control | [12] 96 % of control | [13] 97 % of control | dose: 400.0 mg/kg/injection, schedule: Q01DX009 (ip), vehicle: saline 98 % of control | [19] 103 % of control

SC12CC3CC(CC(C3)C1)C2
inactive: dose: 100.0 mg/kg/injection, schedule: Q04DX002 (ip), vehicle: Klucel (hydroxypropylcellulose) (HPC) 87 % of control | dose: 200.0 mg/kg/injection, schedule: Q04DX002 (ip), vehicle: Klucel (hydroxypropylcellulose) (HPC) 94 % of control | dose: 400.0 mg/kg/injection, schedule: Q04DX002 (ip), vehicle: Klucel (hydroxypropylcellulose) (HPC) 98 % of control

CCc1ccccc1NC(=O)COc1ccc(Cl)cc1
inactive: [14] 98 % of control | [15] 96 % of control | [16] 91 % of control

CC(C)(CO)NCc1ccc(Cl)cc1
inactive: [23] 93 % of control | [24] 97 % of control

CCOc1nc(N)nc2n[nH]nc12
inactive: dose: 82.0 mg/kg/injection, schedule: Q01DX Z (ip), vehicle: carboxymethylcellulose (CMC) 93 % of control | dose: 175.0 mg/kg/injection, schedule: Q01DX Z (ip), vehicle: carboxymethylcellulose (CMC) 112 % of control | dose: 262.0 mg/kg/injection, schedule: Q01DX Z (ip), vehicle: carboxymethylcellulose (CMC) 95 % of control

c1ccc2c(c1)CC1(Cc3ccccc3-2)C[N+]12CCCCC2
inactive: [17] 98 % of control | [18] 98 % of control | [9] 110 % of control

CN=C(N)N(C)/N=C/c1ccccc1
inactive: dose: 87.5 mg/kg/injection, schedule: Q04DX003 (ip), vehicle: Klucel (hydroxypropylcellulose) (HPC) 105 % of control

CN(C)c1ccc(/C=N\NC(=O)CCCC(=O)N/N=C/c2ccc(N(C)C)cc2)cc1
inactive: dose: 50.0 mg/kg/injection, schedule: Q01DX001 (ip), vehicle: saline 93 % of control | [23] 96 % of control | [24] 98 % of control | [25] 93 % of control

O=[N+]([O-])c1ccc(CBr)cc1
inactive: dose: 12.5 mg/kg/injection, schedule: Q01DX009 (ip), vehicle: other 95 % of control | dose: 25.0 mg/kg/injection, schedule: Q01DX009 (ip), vehicle: other 113 % of control | dose: 50.0 mg/kg/injection, schedule: Q01DX009 (ip), vehicle: other 104 % of control
